{"source": "patent US20240374626A1", "about": "“METHODS OF ENHANCING MILK PRODUCTION IN LACTATING MAMMALIAN SUBJECTS” (priority 2023, published 2024)", "assay_type_in_all_cases": "cell-based, mouse", "key": {"HC11 cells [1]": {"test_system": "HC11 cells", "assay": "FACS DNA content analysis of HC11 cells during lactogenic differentiation", "description": "(§1) The HC11 cell line was obtained from American Type Culture Collection (ATCC) and routinely checked for mycoplasma (Mycoplasma PCR kit, ABM, G238). Undifferentiated HC11 cells were cultured in growing medium (RPMI-1640; Thermo Fisher Scientific, 72400047), supplemented with 10% FBS, 5 μg/ml insulin (Millipore-Sigma, 16634), 10 ng/ml epidermal growth factor (EGF; Preprotech, AF-100-15) and 1× AntiAnti (Thermo Fisher Scientific, 15240112) at 37° C. with 5% CO2. Cells were grown to confluency and maintained in growing medium for 2 days, until they became competent. Competent HC11 cells were primed for differentiation by culturing them in priming medium [RPMI-1640 supplemented with 5 μg/ml insulin, 1 μM dexamethasone (Millipore-Sigma, D4902-1 G) and 1× Anti-Anti] for 24 h at 37° C. with 5% CO2. To induce differentiation, primed HC11 cells were cultured in DIP Medium [RPMI-1640, supplemented with 10% FBS, 5 μg/ml insulin, 1 μM dexamethasone, 1× anti-anti and 3 μg/ml Prolactin (NHPP, oPRL-21)] at 37° C. with 5% CO2.\n(§2) […] Drugs were maintained through the differentiation process and added with every change of media.\nFor DNA content analysis of the mammary gland CK8^+ epithelial population, mammary gland cells suspension was obtained as described above. Cells were fixed in ice-cold 70% EtOH at a final concentration of 10^6 cells/ml. During fixation, cells were vigorously vortexed for 1 min to avoid the formation of cell aggregates. Cells were washed twice with washing buffer [1×PBS containing 5% FBS and 0.5% tween 20 (Fisher Chemical, BP337500)] and centrifuged at 2,000 rpm for 5 min at 4° C. Cell pellet was incubated for 1 h at room temperature with anti-CK8 (Developmental Studies Hybridoma Lab, TROMA-1), anti-GFP (Thermo Fisher, A01704) or corresponding rat (Thermo-Fisher, 10700) or rabbit (Thermo-Fisher, 10500C) IgG isotype controls. Cells were washed twice and incubated for 1 h at room temperature in darkness with FITC anti-Rat (Thermo Fisher, A24544) or FITC anti-Rabbit (Thermo Fisher, A16030) and APC anti-Rat (Jackson ImmunoResearch, 712-136-153). Cells were washed twice and resuspended in propidium iodide solution [1×PBS containing 25 μg/ml of propidium iodide (Thermo Fisher, P3566) and 100 μg/ml of RNAse (Thermo Fisher, 12091021)]. For DNA content analysis on HC11, cells were washed with 1×DPBS (GIBCO, 14190-250) and harvested using 0.05% Trypsin-EDTA (GIBCO, 25300-062). Cell suspension was washed with 1×DPBS and centrifuged at 1,000 rpm for 5 min at 4° C. Cell pellet was fixed in ice-cold 70% EtOH and then vortexed vigorously to avoid cell aggregates. After fixation, cells were washed with washing buffer [1×PBS (GIBCO, 14190136) supplemented with 5% FBS] and centrifuged at 2,000 rpm for 5 min at 4° C. The pellet was resuspended in propidium iodide solution. Cell suspensions were filtered through a 70 μm cell strainer (Falcon, 08-771-2) and analyzed using a BD LSRII cytometer or a BD FACS Aria II Cell Sorter. Populations were analyzed using FlowJo."}, "HC11 cells [2]": {"test_system": "HC11 cells", "assay": "Milk production markers in differentiated HC11 (milk domes, Csn2 RT-qPCR, CSN2 WB, PLIN2 ICC)", "description": "as §1, §2\nWhole cell lysates were prepared using 1×NP40 lysis buffer (Thermo Fisher Scientific, FNN0021) supplemented with Pierce Protease and Phosphatase inhibitors (Thermo Fisher Scientific, A32959). Cells were washed with ice-cold PBS (GIBCO, 14190136) and lysed direct in buffer and kept at 4° C. rocking at 70 rpm for 30 min. Lysed cells were collected and centrifuged at 12,000 rpm at 4° C. for 15 min. Protein concentration was quantified using Qubit 4 fluorometer (Thermo Fisher, Q33238). Samples were resolved by SDS page and transferred to polyvinylidene difluoride (PVDF, Millipore-Sigma, IPVH00010) for 60 min at 250 mA. Immunoblots were blocked for 1 h at room temperature using either 5% non-fat milk or 5% BSA TBST. Primary antibodies [anti-GAPDH (SCBT, sc-365062), anti-Actin (SCBT, sc-47778), anti-Cyclin B1 (SCBT, sc-245), anti-Cyclin E1 (Millipore-Sigma, SAB4503516) and anti-CSN2 (ABclonal, A12749)] were incubated overnight at 4° C. in a rocker. HRP-conjugated secondary antibodies ([…]) were used for 1 h at room temperature. Immunoblots were developed using Clarity ECL (Bio-Rad), detected using a Bio-Rad ChemiDoc MP Image, and quantified using ImageJ.\nHC11 cells were fixed using ice-cold MeOH for 10 min. After washing with 1×PBS, cells were incubated for 1 h at room temperature with primary antibodies [anti-γH2AX (SCBT, sc-517348), anti-pATR (Genetex, GTX128145), anti-PLIN2 (generously provided by Jim McManaman)] in a humid incubation chamber. After incubation, cells were washed three times using 1×PBS and incubated for 1 h at room temperature in darkness using corresponding Alexa Fluor AffiniPure secondary antibodies (Jackson ImmunoResearch) and Phalloidin-iFluor 488 Reagent (Abcam, ab176753) when indicated. Cells were washed three times using 1×PBS and incubated with Hoechst 33342 (AnaSpec, AS-83218) for 10 min. Cells were mounted using fluoromount-G (Southern Biotech, 0100-01) and visualized using Zeiss Axio Imager Microscope. Integrated density of PLIN2, nuclear γH2AX and nuclear pATR was quantify using ImageJ.\nFor RNA isolation from FACS purified populations, mammary gland cell suspensions were blocked using Mouse BD Fc Block™ (BD Biosciences) for 10 min. Cells were subsequently resuspended on 1×PBS at a density of 10^7 cells/ml and stained with the following antibodies for 30 min on ice: anti-CD24 PE (Stem Cell Technologies, 60099PE.1), anti-CD29 PE-Cy7 (BioLegend, 102222), anti-CD45-APC (BioLegend,105826), Ter119-APC (BD Biosciences, 561033), CD31-ACP (BD Biosciences, 551262). Propidium iodide at a final concentration of 0.5 μg/ml was used for the discrimination of dead cells. Stromal, basal and luminal mammary populations were sorted using a BD FACS Aria II Cell Sorter. […]"}, "HC11 cells [3]": {"test_system": "HC11 cells", "assay": "Visualization of FACS-purified HC11 subpopulations sorted on DNA content (nuclei number)", "settings": "sorted on DNA content 4C or >4C", "description": "as §2\nMammary gland CK8+ epithelial cells or HC11 were sorted based on DNA content using BD FACS Aria II Cell Sorter. After sorting, cells were stained in suspension using Phalloidin-iFluor 488 Reagent (Abcam, ab176753) for 30 min at room temperature in darkness. Cells were spined down onto microscopy slides (Fisher, 12-550-15) using Cytospin 2 (Shandon, 599X52) at 500 rpm for 3 min. Cells were mounted using fluoromount-G (Southern Biotech, 0100-01) and visualized using Zeiss Axio Imager Microscope."}, "[4]": {"settings": "blebbistatin 30 uM, differentiated HC11"}, "[5]": {"settings": "Ro-3306 5 μM, differentiated HC11 (DIP3)"}}}
{"compound": "Cc1ccc2c(c1)C(=O)C1(O)CCN(c3ccccc3)C1=N2", "note": "(centres unmarked) [blebbistatin]", "values": [{"measurement": "endoreplication / polyploidy (FACS DNA content)", "setting": "HC11 cells [1]; blebbistatin 30 uM, differentiation day 3 (DIP3)", "value": "undergo further endoreplication, becoming polyploid"}, {"measurement": "mitotic arrest / proportion of tetraploid cells (FACS DNA content)", "setting": "HC11 cells [1]; undifferentiated HC11 at 80% confluence, blebbistatin 30 uM, 6 hours post-treatment", "value": "efficiently induces mitotic arrest in HC11 cells, increasing the proportion of tetraploid cells"}, {"measurement": "expression of Periplin-2 (PLIN2), ICC", "setting": "HC11 cells [2]; [4]", "value": "increased expression"}, {"measurement": "expression of β-Casein (Csn2), RT-qPCR", "setting": "HC11 cells [2]; [4]", "value": "increased expression"}, {"measurement": "formation of milk-containing domes", "setting": "HC11 cells [2]; [4]", "value": "increase in the formation of milk-containing domes"}, {"measurement": "nuclei number of cells generated (mono-, bi-, multinucleated)", "setting": "HC11 cells [3]; blebbistatin, differentiated HC11 (DIP3)", "value": "predominantly generates bi- and multinucleated cells"}]}
{"compound": "O=C1NC(=NCc2cccs2)S/C1=C\\c1ccc2ncccc2c1", "note": "[Ro-3306]", "values": [{"measurement": "endoreplication / polyploidy (FACS DNA content)", "setting": "HC11 cells [1]; Ro-3306 5 μM, DIP3", "value": "undergo further endoreplication, becoming polyploid"}, {"measurement": "mitotic arrest / accumulation of tetraploid cells (FACS DNA content)", "setting": "HC11 cells [1]; undifferentiated HC11 at 80% confluence, Ro-3306 5 μM, 6 hours after treatment", "value": "efficiently induces mitotic arrest, as detected by the accumulation of tetraploid cells"}, {"measurement": "CSN2 expression, RT-qPCR", "setting": "HC11 cells [2]; [5]", "value": "increases"}, {"measurement": "CSN2 expression, WB", "setting": "HC11 cells [2]; [5]", "value": "increases"}, {"measurement": "nuclei number of polyploid cells generated (mono-, bi-, multinucleated)", "setting": "HC11 cells [3]; Ro-3306, differentiated HC11 (DIP3)", "value": "generates mono-, bi- and multinucleated polyploid cells"}]}
